# Earlier results in patent US12311004B2, “Ophthalmic formulations and methods of use” (VISION SOLUTIONS, LLC, priority 2023, dated 2025).
# What was measured:
# [1] = tested on: FHV-1; settings: low concentrations, in vitro
# [2] = oral, cat
smiles,measurement,setting,value
NCCCC[C@H](N)C(=O)O [L-lysine],effect on the replication kinetics of the virus,[1],no effect
same,daily intake at which arginine deficiency is likely to occur,[2],exceeding 80 g/kg
